From patent US20120214760A1, “TREATMENT OF URINARY TRACT INFECTIONS WITH ANTIBACTERIAL AMINOGLYCOSIDE COMPOUNDS” (Achaogen, Inc., priority 2009, published 2012)
Converted amounts (≈) assume the structure as drawn. Read-outs that look alike come from different tables or passages of the source.

Key:
Assay type in all cases: cell-based
[1] = tested on: K. pneumoniae AKPN 1073, MDR; assay: MIC of thigh model strain; settings: Klebsiella pneumoniae; Table 5; K. pneumoniae MDR AKPN 1073
Procedure: (§1) Minimum inhibitory concentrations (MIC) were determined by reference Clinical and Laboratory Standards Institute (CLSI) broth microdilution methods per M7-A7 [2006]. Quality control ranges utilizing E. coli ATCC 25922, P. aeruginosa ATCC 27853 and S. aureus ATCC 29213, and interpretive criteria for comparator agents were as published in CLSI M100-S17 [2007]. Briefly, serial two-fold dilutions of the test compounds were prepared at 2× concentration in Mueller Hinton Broth. The compound dilutions were mixed in 96-well assay plates in a 1:1 ratio with bacterial inoculum. The inoculum was prepared by suspension of a colony from an agar plate that was prepared the previous day. Bacteria were suspended in sterile saline and added to each assay plate to obtain a final concentration of 5×10^5 CFU/mL. The plates were incubated at 35° C. for 20 hours in ambient air.

[2] = tested on: K. pneumoniae AKPN 1109, KPC; assay: MIC of thigh model strain; settings: Klebsiella pneumoniae; Table 5; K. pneumoniae KPC AKPN 1109
Procedure: as §1

[3] = tested on: S. marcescens ASMA 1030, KPC; assay: MIC of thigh model strain; settings: Serratia marcescens; Table 5; S. marcescens KPC ASMA 1030
Procedure: as §1

[4] = tested on: E. coli AECO 1003, MDR; assay: MIC of thigh model strain; settings: Escherichia coli
Procedure: as §1

[5] = tested on: K. pneumoniae ATCC 43816, Susceptible; assay: MIC of thigh model strain; settings: Klebsiella pneumoniae, ATCC43816; Table 5; K. pneumoniae Susceptible ATCC 43816
Procedure: as §1

[6] = tested on: S. aureus ATCC 33591, MRSA; assay: MIC of thigh model strain; settings: Staphylococcus aureus
Procedure: as §1

[7] = tested on: E. coli ATCC 25922 (AECO001); assay: MIC, CLSI broth microdilution; settings: for MIC: Escherichia coli; for MIC AECO001: Table 3
In short: (§2)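 CLSI M7-A7 broth microdilution in Mueller Hinton Broth using two-fold compound serial dilutions. Inoculum was prepared from the previous day's agar colonies at a final 5×10^5 CFU/mL. Plates were incubated at 35° C for 20 hours in ambient air.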

[8] = tested on: Klebsiella spp. (21); assay: MIC, urinary tract infection isolates
Procedure: as §1
(§3) In order to determine the activity of representative antibacterial aminoglycoside compounds against bacterial species that commonly cause complicated urinary tract infections worldwide, isolates were collected from 47 medical centers in the U.S. and Europe (10 countries) from urine or blood culture with the source of bacteremia documented as a urinary tract infection. Strains were susceptibility tested against Example 1, gentamicin, amikacin and 10 comparators by CLSI broth microdilution. These MIC assays were conducted following the same protocol as set forth in Example 110. Pathogens (169 in total) included E. coli, Klebsiella spp., Enterobacter spp., Citrobacter spp., P. mirabilis, M. Morganii, P. aeruginosa, S. aureus and S. saprophyticus.

[9] = tested on: S. aureus (23); assay: MIC, urinary tract infection isolates; settings: S. aureus
Procedure: as §1, §3

[10] = tested on: P. aeruginosa (19); assay: MIC, urinary tract infection isolates; settings: P. aeruginosa
Procedure: as §1, §3

[11] = tested on: P. mirabilis (20); assay: MIC, urinary tract infection isolates
Procedure: as §1, §3

[12] = tested on: S. saprophyticus (19); assay: MIC, urinary tract infection isolates; settings: S. saprophyticus
Procedure: as §1, §3

[13] = tested on: Enterobacter spp. (16); assay: MIC, urinary tract infection isolates
Procedure: as §1, §3

[14] = tested on: Citrobacter spp. (15); assay: MIC, urinary tract infection isolates
Procedure: as §1, §3

[15] = tested on: M. morganii (15); assay: MIC, urinary tract infection isolates
Procedure: as §1, §3

[16] = tested on: E. coli (21); assay: MIC, urinary tract infection isolates
Procedure: as §1, §3

[17] = tested on: Pathogens (169 in total); assay: Susceptibility testing, all urinary tract infection isolates; settings: all 169 isolates
Procedure: as §1, §3

[18] = tested on: E. coli AECO040, AAC(6′)-I; assay: MIC, aminoglycoside resistant strain; settings: Table 3
Procedure: as §1
(§4) These MIC assays were conducted following the same protocol as set forth in Example 110. As shown, substituted sisomicin derivatives with groups other than methyl at the 6′-position have improved activity against strains expressing the AAC6′-modifying enzymes.

[19] = tested on: S. marcescens ASMA003, ANT(2″) + AAC(6′); assay: MIC, aminoglycoside resistant strain; settings: Table 3
Procedure: as §1, §4

[20] = tested on: A. calcoaceticus AACA005, AAC(6′)-I; assay: MIC, aminoglycoside resistant strain; settings: Table 3
Procedure: as §1, §4

[21] = tested on: P. aeruginosa ATCC 27853 (APAE001); assay: MIC, CLSI broth microdilution; settings: Pseudomonas aeruginosa
In short: as §2

[22] = tested on: Staphylococcal isolates; assay: Susceptibility testing, urinary tract infection isolates
Procedure: as §1
In order to determine the activity of representative antibacterial aminoglycoside compounds against bacterial species that commonly cause complicated urinary tract infections worldwide, isolates were collected from 47 medical centers in the U.S. and Europe (10 countries) from urine or blood culture with the source of bacteremia documented as a urinary tract infection. Strains were susceptibility tested against Example 1, gentamicin, amikacin and 10 comparators by CLSI broth microdilution. […]

## C[C@@H](O)[C@H]1C(=O)N2C(C(=O)O)=C(SCCN=CN)C[C@H]12 [IMP, imipenem, reference compound]
[1]
  MIC: 0.25 µg/mL
[2]
  MIC: 32 µg/mL
[3]
  MIC: > 32 µg/mL
[4]
  MIC: 0.125 µg/mL
[5]
  MIC: 0.5 µg/mL
[6]; Table 5, S. aureus MRSA ATCC 33591, read-out: MIC
  MIC: > 16 µg/mL
[7]; ATCC25922, Table 5, E. coli Susceptible ATCC 25922
  MIC: 0.125 µg/mL (≈ 0.418 µM)

## CN[C@@H]1[C@@H](O)[C@@H](O[C@@H]2[C@@H](O)[C@H](O[C@H]3OC(CNCCO)=CC[C@H]3N)[C@@H](N)C[C@H]2NC(=O)[C@@H](O)CCN)OC[C@]1(C)O.O=S(=O)(O)O [ACHN-490]
[8]; at 0.5 μg/ml
  Cumulative % inhibited at ACHN-490 MIC: 95.2%
[8]; at 1 μg/ml
  Cumulative % inhibited at ACHN-490 MIC: 100.0%
[8]; at ≦0.25 μg/ml
  Cumulative % inhibited at ACHN-490 MIC: 19.0%
[9]; at 0.5 μg/ml
  Cumulative % inhibited at ACHN-490 MIC: 13.0%
[9]; at 1 μg/ml
  Cumulative % inhibited at ACHN-490 MIC: 60.9%
[9]; at 2 μg/ml
  Cumulative % inhibited at ACHN-490 MIC: 95.7%
[9]; at 4 μg/ml
  Cumulative % inhibited at ACHN-490 MIC: 100.0%
[9]; at ≦0.25 μg/ml
  Cumulative % inhibited at ACHN-490 MIC: 0.0%
[10]; at 0.5 μg/ml
  Cumulative % inhibited at ACHN-490 MIC: 0.0%
[10]; at 1 μg/ml
  Cumulative % inhibited at ACHN-490 MIC: 0.0%
[10]; at 2 μg/ml
  Cumulative % inhibited at ACHN-490 MIC: 0.0%
[10]; at 4 μg/ml
  Cumulative % inhibited at ACHN-490 MIC: 36.8%
[10]; at 8 μg/ml
  Cumulative % inhibited at ACHN-490 MIC: 73.7%
[10]; at 16 μg/ml
  Cumulative % inhibited at ACHN-490 MIC: 89.5%
[10]; at 32 μg/ml
  Cumulative % inhibited at ACHN-490 MIC: 100.0%
[10]; at ≦0.25 μg/ml
  Cumulative % inhibited at ACHN-490 MIC: 0.0%
[11]; at 0.5 μg/ml
  Cumulative % inhibited at ACHN-490 MIC: 0.0%
[11]; at 1 μg/ml
  Cumulative % inhibited at ACHN-490 MIC: 5.0%
[11]; at 2 μg/ml
  Cumulative % inhibited at ACHN-490 MIC: 45.0%
[11]; at 4 μg/ml
  Cumulative % inhibited at ACHN-490 MIC: 90.0%
[11]; at 8 μg/ml
  Cumulative % inhibited at ACHN-490 MIC: 95.0%
[11]; at 16 μg/ml
  Cumulative % inhibited at ACHN-490 MIC: 100.0%
[11]; at ≦0.25 μg/ml
  Cumulative % inhibited at ACHN-490 MIC: 0.0%
[12]; at 0.5 μg/ml
  Cumulative % inhibited at ACHN-490 MIC: 94.7%
[12]; at 1 μg/ml
  Cumulative % inhibited at ACHN-490 MIC: 100.0%
[12]; at ≦0.25 μg/ml
  Cumulative % inhibited at ACHN-490 MIC: 89.5%
[13]; at 0.5 μg/ml
  Cumulative % inhibited at ACHN-490 MIC: 75.0%
[13]; at 1 μg/ml
  Cumulative % inhibited at ACHN-490 MIC: 100.0%
[13]; at ≦0.25 μg/ml
  Cumulative % inhibited at ACHN-490 MIC: 0.0%
[14]; at 0.5 μg/ml
  Cumulative % inhibited at ACHN-490 MIC: 73.3%
[14]; at 1 μg/ml
  Cumulative % inhibited at ACHN-490 MIC: 86.7%
[14]; at 2 μg/ml
  Cumulative % inhibited at ACHN-490 MIC: 93.3%
[14]; at 4 μg/ml
  Cumulative % inhibited at ACHN-490 MIC: 100.0%
[14]; at ≦0.25 μg/ml
  Cumulative % inhibited at ACHN-490 MIC: 0.0%
[15]; at 0.5 μg/ml
  Cumulative % inhibited at ACHN-490 MIC: 0.0%
[15]; at 1 μg/ml
  Cumulative % inhibited at ACHN-490 MIC: 6.7%
[15]; at 2 μg/ml
  Cumulative % inhibited at ACHN-490 MIC: 60.0%
[15]; at 4 μg/ml
  Cumulative % inhibited at ACHN-490 MIC: 86.7%
[15]; at 8 μg/ml
  Cumulative % inhibited at ACHN-490 MIC: 100.0%
[15]; at ≦0.25 μg/ml
  Cumulative % inhibited at ACHN-490 MIC: 0.0%
[16]; at 0.5 μg/ml
  Cumulative % inhibited at ACHN-490 MIC: 19.0%
[16]; at 1 μg/ml
  Cumulative % inhibited at ACHN-490 MIC: 61.9%
[16]; at 2 μg/ml
  Cumulative % inhibited at ACHN-490 MIC: 100.0%
[16]; at ≦0.25 μg/ml
  Cumulative % inhibited at ACHN-490 MIC: 0.0%

## CN[C@H](CC(C)C)C(=O)N[C@H]1C(=O)N[C@@H](CC(N)=O)C(=O)N[C@H]2C(=O)N[C@H]3C(=O)N[C@H](C(=O)N[C@H](C(=O)O)c4cc(O)cc(O)c4-c4cc3ccc4O)[C@H](O)c3ccc(c(Cl)c3)Oc3cc2cc(c3O[C@@H]2O[C@H](CO)[C@@H](O)[C@H](O)[C@H]2O[C@H]2C[C@](C)(N)[C@H](O)[C@H](C)O2)Oc2ccc(cc2Cl)[C@H]1O [VAN, vancomycin]
[6]
  MIC: 1 µg/mL

## NCC[C@H](O)C(=O)N[C@@H]1C[C@H](N)[C@@H](O[C@H]2O[C@H](CN)[C@@H](O)[C@H](O)[C@H]2O)[C@H](O)[C@H]1O[C@H]1O[C@H](CO)[C@@H](O)[C@H](N)[C@H]1O [Amikacin, amikacin, reference compound]
[17]
  Overall susceptibility rate: 94.1%

## CN[C@@H]1[C@@H](O)[C@@H](O[C@@H]2[C@@H](O)[C@H](O[C@H]3OC(CNCC4CC4)=CC[C@H]3N)[C@@H](N)C[C@H]2NC(=O)[C@@H](O)CN)OC[C@]1(C)O [Example 13, 6′-(Methyl-cyclopropyl)-1-(3-amino-2(S)-hydroxy-propionyl)-sisomicin]
[18]
  MIC AECO040: 0.125 µg/mL (≈ 0.212 µM)
[19]
  MIC ASMA003: 2 µg/mL (≈ 3.4 µM)
[20]
  MIC AACA005: 2 µg/mL (≈ 3.4 µM)
[21]; ATCC27853, read-out: MIC APAE001, Table 1, APAE001 is ATCC27853
  MIC: > 16 µg/mL
[7]; ATCC25922, read-out: MIC AECO001, Table 1, AECO001 is ATCC25922
  MIC: 1 to 16 µg/mL (≈ 1.7 to 27.2 µM)
[7]; ATCC25922
  MIC AECO001: 1 µg/mL (≈ 1.7 µM)

## O=C1CN(/N=C/c2ccc([N+](=O)[O-])o2)C(=O)N1 [nitrofurantoin]
[22]
  Staphylococcal susceptibility rate: 33.3%

## CN[C@@H]1[C@@H](O)[C@@H](O[C@@H]2[C@@H](O)[C@H](O[C@H]3OC(CNCCCN)=CC[C@H]3N)[C@@H](N)C[C@H]2NC(=O)[C@@H](O)CN)OC[C@]1(C)O [Example 17, 6′-(3-Amino-propyl)-1-(3-amino-2(S)-hydroxy-propionyl)-sisomicin]
[18]
  MIC AECO040: 0.5 µg/mL (≈ 0.845 µM)
[19]
  MIC ASMA003: 2 µg/mL (≈ 3.38 µM)
[20]
  MIC AACA005: 2 µg/mL (≈ 3.38 µM)
[21]; ATCC27853, Table 2, read-out: MIC P. aeruginosa
  MIC: 1 to 16 µg/mL (≈ 1.69 to 27 µM)
[7]; ATCC25922, Table 2, read-out: MIC E. coli
  MIC: < 1 µg/mL
[7]; Table 1, AECO001 is ATCC25922, read-out: MIC AECO001
  MIC: < 1 µg/mL
[7]; ATCC25922
  MIC AECO001: 1 µg/mL (≈ 1.69 µM)
